Reference: patent publication US11021444B2, “Antiviral compounds” (priority 2013, dated 2021)
Where two headings read alike, the source gives them in different places.

Legend:
[1] = system: Respiratory Syncytial Virus (RSV) long strain; test: microbe, parasite or virus in culture; assay type: cell-based; conditions: human respiratory syncytial virus, Tables A and B list compounds by EC50 band
Method in brief: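 CPE-reduction format: viability measured colorimetrically with CCK-8 (450 nm, 630 nm reference) after 3-4 h, following 5-day infection at 37 °C, 5% CO2. Cells were HEp-2; inoculum 100 TCID50/well; duplicate 9-point 1/3 series starting at 100 μM or 1 μM.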

[2] = system: RSV replicon; test: microbe, parasite or virus in culture; assay type: cell-based; conditions: human respiratory syncytial virus, read-out: EC50, the concentration of the drug required for reducing RSV replicon RNA by 50%
[3] = target: recombinant RSV complex (Human respiratory syncytial virus A, UniProt P28887); test: RSV Polymerase Inhibition Assay; assay type: biochemical
Method in brief: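 Inhibition measured as reduced incorporation of radiolabel into RNA products, detected by scintillation counting. Reactions: recombinant RSV complex (10 nM), RNA oligonucleotides, Tris-HCl pH 7.5, 6 mM MgCl2, inhibitor titration, 2 h at 30 °C, EDTA stop.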

[4] = Cytotoxicity Determination (CCK-8, without addition of virus); assay type: cell-based; conditions: human
Method in brief: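 Cytotoxicity was measured by CCK-8 after 3-4 hours at 37 °C, following 5 days of uninfected exposure at 37 °C and 5% CO2. Compounds ran as duplicate 7-point 1/2 dilutions starting at 100 μM, with 1% final DMSO. HEp-2 cells had been plated at 1,500/well the day before.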

[5] = HEp-2, 120 h, read-out: 50% effective concentration (EC50), HEp-2 cells infected with RSV long strain, 5 days, CCK-8 readout
[6] = 50% cytotoxicity concentration (CC50)
[7] = 120 h, read-out: 50% effective concentration (EC50), HEp-2 cells infected with RSV long strain, 5 days, CCK-8 readout

Chain of recombinant RSV complex (P28887 whole entry): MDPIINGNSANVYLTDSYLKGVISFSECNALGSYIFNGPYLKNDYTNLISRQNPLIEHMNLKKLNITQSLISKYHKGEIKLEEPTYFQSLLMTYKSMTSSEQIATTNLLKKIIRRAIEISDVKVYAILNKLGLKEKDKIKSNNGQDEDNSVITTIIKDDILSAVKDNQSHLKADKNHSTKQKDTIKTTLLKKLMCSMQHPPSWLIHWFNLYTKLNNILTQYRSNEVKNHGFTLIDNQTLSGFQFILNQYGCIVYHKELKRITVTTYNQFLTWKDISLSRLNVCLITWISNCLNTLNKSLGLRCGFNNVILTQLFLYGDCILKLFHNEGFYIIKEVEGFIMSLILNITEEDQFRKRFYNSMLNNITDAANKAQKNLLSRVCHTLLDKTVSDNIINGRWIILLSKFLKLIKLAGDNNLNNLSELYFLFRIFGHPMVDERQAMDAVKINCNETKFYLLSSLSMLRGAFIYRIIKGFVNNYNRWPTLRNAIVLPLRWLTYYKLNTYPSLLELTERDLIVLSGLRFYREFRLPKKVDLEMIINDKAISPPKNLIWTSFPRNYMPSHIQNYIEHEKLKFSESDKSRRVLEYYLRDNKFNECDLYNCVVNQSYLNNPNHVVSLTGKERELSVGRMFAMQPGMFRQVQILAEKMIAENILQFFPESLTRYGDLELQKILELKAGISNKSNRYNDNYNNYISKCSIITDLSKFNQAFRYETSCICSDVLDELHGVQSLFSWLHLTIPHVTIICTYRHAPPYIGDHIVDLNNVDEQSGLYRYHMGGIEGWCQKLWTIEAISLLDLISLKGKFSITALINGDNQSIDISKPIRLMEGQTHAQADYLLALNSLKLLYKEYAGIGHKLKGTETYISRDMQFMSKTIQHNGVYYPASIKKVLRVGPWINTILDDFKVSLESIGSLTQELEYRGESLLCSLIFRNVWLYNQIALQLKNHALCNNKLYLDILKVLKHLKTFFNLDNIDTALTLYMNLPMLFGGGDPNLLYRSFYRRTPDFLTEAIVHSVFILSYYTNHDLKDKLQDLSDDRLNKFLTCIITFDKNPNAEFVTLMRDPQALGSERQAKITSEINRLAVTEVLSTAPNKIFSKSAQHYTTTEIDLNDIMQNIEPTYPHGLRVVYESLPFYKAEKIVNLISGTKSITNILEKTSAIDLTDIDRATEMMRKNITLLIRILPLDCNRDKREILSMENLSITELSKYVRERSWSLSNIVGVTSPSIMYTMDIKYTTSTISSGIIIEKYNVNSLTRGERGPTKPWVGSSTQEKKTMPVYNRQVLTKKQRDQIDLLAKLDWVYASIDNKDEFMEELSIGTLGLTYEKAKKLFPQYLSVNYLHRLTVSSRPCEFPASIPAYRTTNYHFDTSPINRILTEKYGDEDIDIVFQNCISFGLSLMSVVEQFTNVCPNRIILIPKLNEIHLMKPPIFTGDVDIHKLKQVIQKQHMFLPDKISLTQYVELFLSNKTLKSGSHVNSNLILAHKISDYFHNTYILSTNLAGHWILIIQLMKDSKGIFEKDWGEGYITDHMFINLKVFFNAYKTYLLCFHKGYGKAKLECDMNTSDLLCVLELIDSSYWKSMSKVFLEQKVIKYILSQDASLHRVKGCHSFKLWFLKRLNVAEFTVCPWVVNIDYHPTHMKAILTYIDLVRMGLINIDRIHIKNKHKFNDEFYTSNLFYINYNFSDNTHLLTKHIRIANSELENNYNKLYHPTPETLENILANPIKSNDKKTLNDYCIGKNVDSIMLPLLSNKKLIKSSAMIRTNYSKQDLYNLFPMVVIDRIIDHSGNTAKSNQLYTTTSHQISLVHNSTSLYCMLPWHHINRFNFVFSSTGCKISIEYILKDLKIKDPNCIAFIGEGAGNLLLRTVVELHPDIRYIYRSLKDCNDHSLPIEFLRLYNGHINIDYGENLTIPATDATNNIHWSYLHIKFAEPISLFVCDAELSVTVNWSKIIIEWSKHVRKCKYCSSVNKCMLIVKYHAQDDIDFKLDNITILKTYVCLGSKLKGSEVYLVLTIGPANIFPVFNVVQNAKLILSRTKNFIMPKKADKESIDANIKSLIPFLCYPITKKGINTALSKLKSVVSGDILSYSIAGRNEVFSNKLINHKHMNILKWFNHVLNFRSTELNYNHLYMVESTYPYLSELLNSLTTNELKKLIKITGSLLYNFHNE
Chain of recombinant RSV complex (P03421 whole entry, further chain): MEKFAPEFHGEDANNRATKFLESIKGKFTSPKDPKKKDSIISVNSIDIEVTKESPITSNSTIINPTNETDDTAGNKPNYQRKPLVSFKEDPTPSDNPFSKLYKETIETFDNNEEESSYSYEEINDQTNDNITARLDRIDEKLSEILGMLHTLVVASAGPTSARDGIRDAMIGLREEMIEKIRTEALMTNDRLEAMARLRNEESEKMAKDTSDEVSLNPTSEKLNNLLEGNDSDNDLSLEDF

Row | Compound | EC50 [1, 5] [nM] | EC50 [2] [nM] | IC50 [3] [nM] | CC50 at 5 days [4, 6] [nM] | CC50 at 5 days ([4]; no virus, 5 days, CCK-8 readout, Tables C and D list compounds by CC50 band) [nM] | EC50 [1, 7] [nM]
1 | COc1cc(C(=O)NCC(O)(c2cc3c(c(-c4ccc(F)c(Cl)c4)n2)OCC3N)C(F)(F)F)ccc1OC1CC1 (stereo not shown) [Compound 525] | < 1000 | < 1000 | < 1000 | 10000 to 100000 |  | 
2 | COc1cc(C(=O)NCC(O)(c2cc3c(c(-c4ccc(F)c(Cl)c4)n2)CNC3(C)C)C(F)(F)F)ccc1OC1CC1 (stereo not shown) [Compound 526] | < 1000 | < 1000 | < 1000 | 10000 to 100000 |  | 
3 | COc1cc(C(=O)NCC(O)(c2cc(C(C)(C)N)cc(-c3ccc(C#N)cc3)n2)C(F)(F)F)ccc1OC1CC1 (stereo not shown) [Compound 527] | < 1000 | < 1000 | < 1000 |  | 10000 to 100000 | 
4 | COc1cc(C(=O)NCC(O)(c2cc(C(N)CO)cc(-c3ccc(F)c(Cl)c3)n2)C(F)(F)F)ccc1OC1CC1 (stereo not shown) [Compound 528] | < 1000 | < 1000 | < 1000 | 10000 to 100000 |  | 
5 | COc1cc(C(=O)NCC(O)(c2cc(C(N)CO)cc(-c3ccc(F)cc3)n2)C(F)(F)F)ccc1OC1CC1 (stereo not shown) [Compound 529] | < 1000 | < 1000 | < 1000 | 10000 to 100000 |  | 
6 | CCC1(N)COc2c1cc(C(O)(CNC(=O)c1ccc(OCCO)c(OC)c1)C(F)(F)F)nc2-c1ccc(F)cc1 (stereo not shown) [Compound 530] |  | < 1000 | < 1000 | 10000 to 100000 |  | < 1000
7 | CCC1(N)COc2c1cc(C(O)(CNC(=O)c1ccc(OC3CC3)c(OC)c1)C(F)(F)F)nc2-c1ccc(F)cc1 (stereo not shown) [Compound 531] | < 1000 | < 1000 | < 1000 | 10000 to 100000 |  | 
8 | COc1cc(C(=O)NCC(O)(c2cc(C(C)(N)CO)cc(-c3ccc(F)c(Cl)c3)n2)C(F)(F)F)ccc1OC1CC1 (stereo not shown) [Compound 533] | < 1000 | < 1000 | < 1000 | 10000 to 100000 |  | 
9 | COc1cc(C(=O)NCC(O)(c2cc(C(C)(N)CF)cc(-c3ccc(F)c(Cl)c3)n2)C(F)(F)F)ccc1OC1CC1 (stereo not shown) [Compound 534] | < 1000 | < 1000 | < 1000 | 10000 to 100000 |  | 
10 | COCC(C)(N)c1cc(-c2ccc(F)c(Cl)c2)nc(C(O)(CNC(=O)c2ccc(OC3CC3)c(OC)c2)C(F)(F)F)c1 (stereo not shown) [Compound 535] | < 1000 | < 1000 | < 1000 | 10000 to 100000 |  | 
11 | COc1cc(C(=O)NCC(O)(c2cc(C(C)(N)C(N)=O)cc(-c3ccc(F)c(Cl)c3)n2)C(F)(F)F)ccc1OC1CC1 (stereo not shown) [Compound 536] | < 1000 | < 1000 | < 1000 | 10000 to 100000 |  | 
12 | COc1cc(C(=O)NCC(O)(c2cc3c(c(-c4ccc(F)cc4)n2)OCC3(C)CN)C(F)(F)F)ccc1OC1CC1 (stereo not shown) [Compound 538] | < 1000 | < 1000 | < 1000 | 10000 to 100000 |  | 
13 | COc1cc(C(=O)NCC(O)(c2cc3c(c(-c4ccc(F)cc4)n2)OCC3(C)N)C(F)(F)F)ccc1OCCO (stereo not shown) [Compound 539] | < 1000 | < 1000 | < 1000 | 10000 to 100000 |  | 
14 | COc1cc(C(=O)NCC(O)(c2cc(C(C)(N)CF)cc(-c3ccc(F)c(Cl)c3)n2)C(F)(F)F)ccc1OCCO (stereo not shown) [Compound 540] |  | < 1000 | < 1000 | 10000 to 100000 |  | < 1000
15 | COc1cc(C(=O)NCC(O)(c2cc3c(c(-c4ccc(F)cc4)n2)OCC3(C)N)C(F)(F)F)ccc1OCC(N)=O (stereo not shown) [Compound 543] | < 1000 | < 1000 | < 1000 | 10000 to 100000 |  | 
16 | COc1cc(C(=O)NC[C@@](O)(c2cc(C(C)(C)N)cc(-c3ccc(F)cc3)n2)C(F)(F)F)ccc1OC[C@@H](C)O [Compound 545] | < 1000 | < 1000 | < 1000 | 10000 to 100000 |  | 
17 | COc1cc(C(=O)NC[C@](O)(c2cc(C(C)(C)N)cc(-c3ccc(F)cc3)n2)C(F)(F)F)ccc1OC[C@@H](C)O [Compound 546] | < 1000 | < 1000 | < 1000 | 10000 to 100000 |  | 
18 | COc1cc(C(=O)NC[C@@](O)(c2cc(C(C)(C)N)cc(-c3ccc(F)c(Cl)c3)n2)C(F)(F)F)ccc1OCC(N)=O [Compound 547] | < 1000 | < 1000 | < 1000 | 10000 to 100000 |  | 
19 | COc1cc(C(=O)NC[C@](O)(c2cc(C(C)(C)N)cc(-c3ccc(F)c(Cl)c3)n2)C(F)(F)F)ccc1OCC(N)=O [Compound 548] | < 1000 | < 1000 | < 1000 | 10000 to 100000 |  | 

Row | Compound | EC50 [1, 5] [nM] | EC50 [2] [nM] | IC50 [3] [nM] | CC50 at 5 days [4, 6] [nM] | CC50 at 5 days ([4]; no virus, 5 days, CCK-8 readout, Tables C and D list compounds by CC50 band) [nM] | EC50 [1, 7] [nM]
20 | COc1cc(C(=O)NC[C@@](O)(c2cc(C(C)(C)N)cc(-c3ccc(F)c(Cl)c3)n2)C(F)(F)F)ccc1OC[C@@H](C)O [Compound 551] | < 1000 | < 1000 | < 1000 | 10000 to 100000 |  | 
21 | COc1cc(C(=O)NC[C@](O)(c2cc(C(C)(C)N)cc(-c3ccc(F)c(Cl)c3)n2)C(F)(F)F)ccc1OC[C@@H](C)O [Compound 552] | < 1000 | < 1000 | < 1000 | 10000 to 100000 |  | 
22 | COc1cc(C(=O)NC[C@](O)(c2cc(C(C)(C)N)cc(-c3ccc(F)cc3)n2)C(F)(F)F)ccc1OCCO [Compound 554] | < 1000 | < 1000 | < 1000 | 10000 to 100000 |  | 
23 | COc1cc(C(=O)NCC(O)(c2cc3c(c(-c4ccc(F)cc4)n2)OCC3(C)N)C(F)(F)F)ccc1OC[C@@H](C)O (stereo partly shown) [Compound 556] | < 1000 | < 1000 | < 1000 | 10000 to 100000 |  | 
24 | COc1cc(C(=O)NCC(O)(c2cc(C(C)(C)N)cc(-c3ccnc(Cl)c3)n2)C(F)(F)F)ccc1OC1CC1 (stereo not shown) [Compound 558] | < 1000 | < 1000 | < 1000 | 10000 to 100000 |  | 
25 | COc1cc(C(=O)NCC(O)(c2cc3c(c(-c4ccc(F)cc4)n2)OCC3(N)C(C)C)C(F)(F)F)ccc1OC1CC1 (stereo not shown) [Compound 560] |  | < 1000 | < 1000 | 10000 to 100000 |  | < 1000
26 | COc1cc(C(=O)NC[C@@](O)(c2cc(C(C)(C)N)cc(-c3ccc(F)cc3)n2)C(F)(F)F)ccc1OCC(N)=O [Compound 561] | 1000 to 50000 | < 1000 | < 10000 | > 100000 |  | 
27 | COc1cc(C(=O)NC[C@](O)(c2cc(C(C)(C)N)cc(-c3ccc(F)cc3)n2)C(F)(F)F)ccc1OCC(N)=O [Compound 562] | < 1000 | < 1000 | < 1000 | > 100000 |  | 
28 | COc1cc(C(=O)NCC(O)(c2cc([C@@]3(C)CCN3)cc(-c3ccc(F)c(Cl)c3)n2)C(F)(F)F)ccc1OC1CC1 (stereo partly shown) [Compound 563] | < 1000 | < 1000 | < 1000 | 10000 to 100000 |  | 
29 | CC(C)(N)c1cc(-c2ccc(F)cc2)nc(C(O)(CNC(=O)c2ccc3c(c2)CC(=O)N3)C(F)(F)F)c1 (stereo not shown) [Compound 571] | < 1000 | < 1000 | < 1000 | 10000 to 100000 |  | 
30 | COc1cc(C(=O)NCC(C)(O)c2cc(C(C)(C)N)cc(-c3ccc(F)cc3)n2)ccc1OC1CC1 (stereo not shown) [Compound 574] | < 1000 | < 1000 | < 1000 | 10000 to 100000 |  | 
31 | COc1cc(C(=O)NCC(O)(c2cc(C(C)(C)NC3CCC3)cc(-c3ccc(F)c(Cl)c3)n2)C(F)(F)F)ccc1OC1CC1 (stereo not shown) [Compound 575] | < 1000 | < 1000 | < 1000 | 10000 to 100000 |  | 
32 | COc1cc(C(=O)NCC(O)(c2cc(C(C)(C)NC3COC3)cc(-c3ccc(F)c(Cl)c3)n2)C(F)(F)F)ccc1OC1CC1 (stereo not shown) [Compound 577] | < 1000 | < 1000 | < 1000 | 10000 to 100000 |  | 
33 | COc1cc(C(=O)NCC(O)(c2cc(C(C)(C)NC(C)=N)cc(-c3ccc(F)c(Cl)c3)n2)C(F)(F)F)ccc1OC1CC1 (stereo not shown) [Compound 579] | < 1000 | < 1000 | < 1000 | 10000 to 100000 |  | 
34 | COc1cc(C(=O)NCC(O)(c2cc(C(C)(C)N)cc(-c3ccc(F)cc3)n2)C(F)(F)F)ccc1OCC(N)=O (stereo not shown) [Compound 580] |  | < 1000 | < 1000 | > 100000 |  | < 1000
35 | COc1cc(C(=O)NCC(O)(c2cc(C(C)(C)N)cc(-c3ccc(F)cc3)n2)C(F)(F)F)ccc1OC[C@@H](C)O (stereo partly shown) [Compound 586] | < 1000 | < 1000 | < 1000 | 10000 to 100000 |  | 
36 | COc1cc(C(=O)NCC(O)(c2cc(C(C)(C)N)c(OC)c(-c3ccc(F)cc3)n2)C(F)(F)F)ccc1OC1CC1 (stereo not shown) [Compound 594] | < 1000 | < 1000 | < 1000 | 10000 to 100000 |  | 
37 | COc1cc(C(=O)NCC(O)(c2cc(C3(N)COC3)cc(-c3ccc(F)cc3)n2)C(F)(F)F)ccc1OC1CC1 (stereo not shown) [Compound 595] | < 1000 | < 1000 | < 1000 | 10000 to 100000 |  | 
